This is an account of results in patent US8084605B2, “Polymorphs of succinate salt of 2-[6-(3-amino-piperidin-1-yl)-3-methyl-2,4-dioxo-3,4-dihydro-2H-pyrimidin-1-ylmethy]-4-fluor-benzonitrile and methods of use therefor” (priority 2006, dated 2011).

SMILES strings stand for the structures.

Holding throughout (assay type): physicochemical
A short description of series [1]: Moisture sorption/desorption analysis. As to the method: Moisture sorption/desorption data were collected on a VTI SGA-100 Vapor Sorption Analyzer. Sorption and desorption data were collected over a range of 5% to 95% relative humidity (RH) at 10% RH intervals under a nitrogen purge. Samples were not dried prior to analysis. Equilibrium criteria used for analysis were less than 0.0100% weight change in 5 minutes, with a maximum equilibration time of 3 hours if the weight criterion was not met. Data were not corrected for the initial moisture content of the samples. NaCl and PVP were used as calibration standards. Moisture sorption and desorption study was conducted on a sample of Form A+B. The sample was prepared by crashed cooling crystallization (Example 3, section A.6) of the polymorphic forms from a ethanol:water (95:5) solution of Compound I. The moisture sorption and desorption study was conducted according to the procedures outlined in Example 3, section B. 10. The data collected is plotted in FIG. 13 and summarized in Table L. Moisture sorption and desorption study was conducted on a sample of Form E. The sample was prepared by solvent/antisolvent crystallization (Example 3, section A.7) by the addition of acetonitrile to Compound I in water. The moisture sorption and desorption study was conducted according to the procedures outlined in Example 3, section B. 10. The data collected is plotted in FIG. 23 and summarized in Table M. Moisture sorption and desorption study was conducted on a sample of Amorphous Form. The sample was prepared by lyophilolization of a solution of Compound I in water (Example 3, section A.9). The moisture sorption and desorption study was conducted according to the procedures outlined in Example 3, section B. 10.

A short description of series [2]: Approximate solubility of Compound I in different solvents. The following applies: most solvents, with the exceptions of DMF, methanol, TFE, water and water:solvent mixtures. As to the method:
Compound I prepared by the method described in Example 1 was used for the solubility study. Solvents and other reagents were of ACS or HPLC grade and were used as received.
A weighed sample (typically about 20-25 mg) of Compound I was treated at ambient temperature with aliquots (typically ≧50 μL) of the test solvent with sonication between additions. Solvents were either reagent or HPLC grade. Solubility was estimated from the total volume of solvent used to obtain a clear solution, as determined by visual inspection. Solubility is expressed as “less than” when dissolution was not observed. If dissolution occurred after the last aliquot was added then solubility is expressed as “greater than or equal to” (≧). The actual solubilities may be greater than determined, due to over addition of solvent (large aliquots) or slow dissolution rates. Approximate solubilities of Compound I are summarized in Table A. The solubility values have been rounded to the nearest whole number and are reported to the nearest mg/mL.

Series [3] can be described thus: Relative humidity stressing experiments (form by XRPD). The conditions noted are these: for Form by XRPD after relative humidity stressing: 29 days. The source says:
Samples of Compound I were placed uncovered in approximately 58%, 88%, and 97% relative humidity jars. The samples were stored in the jars for approximately 8 days. The solids were collected and analyzed by XRPD for form identification. Aliquots of Form A of Compound I were stored under approximately 50% and 97% relative humidity for 29 days. An aliquot of a mixture of Form A+B was stressed at 88% relative humidity for 23 days. Amorphous Form was stressed at 58% and 88% relative humidity for 23 days.

As for `Cn1c(=O)cc(N2CCC[C@@H](N)C2)n(Cc2ccccc2C#N)c1=O.O=C(O)CCC(=O)O` [Amorphous Form], in series [1] (at 75% relative humidity), the “Weight lost during sorption” value was “Approximately 7%”.

With `Cn1c(=O)cc(N2CCC[C@@H](N)C2)n(Cc2cc(F)ccc2C#N)c1=O` [Compound I, 2-[6-(3-amino-piperidin-1-yl)-3-methyl-2,4-dioxo-3,4-dihydro-2H-pyrimidin-1-ylmethyl]-4-fluoro-benzonitrile succinate], the “Solubility (in words)” value in series [2] is listed as “Poor solubility”. Also, the “XRPD Form post MB” value is “low crystallinity A” in series [1] (lyophilized sample from H2O solution), “A + small quantity of E” in series [1] (sample crystallized from H2O/ACN) and “A + B” in series [1] (sample prepared by CC from EtOH:H2O (95:5)).

For `Cn1c(=O)cc(N2CCC[C@@H](N)C2)n(Cc2cc(F)ccc2C#N)c1=O.O=C(O)CCC(=O)O` [Form A], the “Stability (conclusion from characterization data)” value in series [3] (ambient conditions) was “stable at ambient conditions”. For the same molecule, the “Form by XRPD after relative humidity stressing” value was “Form A” in series [3] (approximately 50% and 97% relative humidity); “did not exhibit form changes” in series [3] (approximately 58% and 97% relative humidity).
